Columns and labels:
Assay type in all cases: in vivo, rat
normal rats [1] = assay: Example 2: attentional set-shifting model, place strategy shifted to visual cue strategy; details: injection before acquisition (FIG. 7A)
Description: The beneficial effects of CDD-0102A in the rat model of cognitive flexibility are among the strongest evidence providing the scientific rationale for CDD-0102A in the treatment of PSP. The inventors have developed several models of cognitive flexibility, including the model of attentional set shifting involving an extradimensional set shift described here. The model involves a place-visual cue task. Rats first learned to use a place strategy—always to enter the same arm to receive a food reward. Criterion was set at 10 consecutive correct trials. The following day, rats had to inhibit the place strategy and to learn a new visual cue strategy to receive the reward. Local visual cues in the maze arms included a black board in one arm and white board in the other arm. The cues were switched between the choice arms randomly across trials so the same cue was not always in the same location. The rat had to choose the arm that contained a particular color cue (e.g., black) in order to receive the reward. The criterion again was set at 10 consecutive correct trials.
Rats received either saline (N=3) or CDD-0102A at various doses 30 minutes prior to testing.

normal rats [2] = assay: Example 2: attentional set-shifting model, visual cue strategy shifted to place strategy; details: injection before acquisition (FIG. 8A)
Description: The whole experiment was repeated with the rats learning first a visual cue strategy and then being switched to a place strategy.

male Long-Evans rats [3] = assay: Place discrimination acquisition and switch to visual cue discrimination (strategy switching); details: i.p.
Protocol: A different group of rats was used for the discrimination learning and strategy switching tests from that used in the delayed spontaneous alternation test. Prior to testing, rats were food-restricted to maintain their weight at 85% of their free-feed weight, handled and trained in the maze to obtain half piece of Froot Loops® cereal in the cross-maze.
Following training, each rat was tested across two consecutive days. In the first experiment each rat had to learn a place discrimination. Rats were started in a pseudorandom manner from one of two different arms such that any start arm was not used more than 3 consecutive trials. The two start arms (“east” and “west”) were always opposite each other. A black plastic block was placed in the entrance of the maze arm opposite to that of the start arm, giving the maze a T-shape. Thus, the same two choice arms were used no matter what start arm was used. A rat was started in the stem arm with only one of the two choice arms baited. In the acquisition phase, one choice arm or place was designated the reinforced arm which contained a ½ piece of cereal reinforcement on each trial. In this phase, a rat was required to enter the reinforced arm containing a ½ piece of cereal. […]
In the switch phase of each experiment, the errors committed were separated into different categories and analyzed. […]

male Long-Evans rats [4] = assay: Salivation studies, salivary output over 60 minutes after i.p. administration
Protocol: For studies of salivation, male Long-Evans rats were purchased from Charles River Laboratories (Wilmington, Mass.) weighing between 250-425 g. Animals were kept in a vivarium on a 12-h light/dark cycle. Humidity was maintained at 30-70%, and temperature was maintained at 20-24° C. All procedures were approved by the Institutional Animal Care and Use Committee at Mithridion, Inc.
Salivation was quantified in rats following i.p. administration of CDD-0102A. Rats were first anesthetized with isoflurane, and then dosed with CDD-0102 by i.p. injection. Anesthesia was maintained by a nose cone that delivered 1.5-2.5% isoflurane in 500 ml/minute of oxygen. CDD-0102A was dissolved in phosphate-buffered saline and the injection volume was 2 ml/kg. The hind limbs of anesthetized animals were taped to the top of an incline (25° grade) so that the animal was oriented with its head near the bottom of the slope and its dorsal-surface oriented upward. Body temperature was monitored by a rectal thermometer, and maintained at 36-38° C. by a heating pad. The animal's nose was inserted into a nose cone for maintaining anesthesia while the entire mouth remained outside this nose cone. Pre-weighed filter paper (approximately 5×5 cm) was placed underneath the mouth to absorb the draining saliva. After 5 minutes, the saliva-wetted filter paper was weighed and replaced with fresh, pre-weighed filter paper. Total salivary output was calculated by subtracting the mass of the filter paper from the combined mass of paper plus saliva as collected over 60 minutes.

male Long-Evans rats [5] = assay: Visual cue discrimination acquisition and switch to place discrimination (strategy switching); details: 0.003 mg/kg i.p. before switch phase; vs controls
Protocol: In a separate experiment, the effect of CDD-0102A on initial learning of a visual cue strategy and switch to a place strategy was determined. All other aspects of the testing procedure were as described above. The treatment groups in this experiment were as follows: 1) saline—saline (n=8); 2) saline—CDD-0102A 0.003 mg/kg (n=7); 3) saline—CDD-0102A 0.03 mg/kg (n=7); 4) vehicle—CDD-0102A 0.1 mg/kg (n=8); 5) CDD-0102A 0.03 mg/kg-saline (n=7); or 6) CDD-0102A 0.01 mg/kg-saline (n=8).
These same types of errors were calculated in a similar manner for the experiment in which rats first learned a visual cue strategy and then switched to a place strategy.
In the spontaneous alternation task, a one-way analysis of variance was used to identify differences in percent alternation scores and number of arm entries across groups. Newman-Keuls post-hoc tests were used to compare treatment and control group measures. In the discrimination learning tests, one-way analyses of variance were used to identify differences in trials to criterion for acquisition and strategy switching. Separate analyses of variance were carried out to determine group differences in perseverative, regressive, and never-reinforced errors. Newman-Keuls post-hoc tests were used to compare differences between treatment groups.

male Long-Evans rats [6] = assay: Delayed spontaneous alternation in a 4-arm cross maze (30 second delay); details: i.p.
Protocol: For behavioral studies, male Long-Evans rats were purchased from Harlan (Indianapolis, Ind.) weighing between 325-375 g. Rats were individually housed in plastic cages (20.3 cm×20.3 cm×41.9 cm) in an environmentally controlled room (23° C., 30% humidity) on a 12 h:12 h light:dark cycle (lights on at 7:00 am). After at least four days to acclimate to the colony room, rats were handled for 10 minutes per day for four days to adjust to being handled during training and testing. At the same time rats began to be handled, rats were also food restricted to reduce their weight to 85-90% of their ad libitum weight. Rats had free access to water throughout the experiment. Animal care and use conformed to the guidelines of the National Institutes of Health Guide for the Care and Use of Laboratory Animals, and was approved by the Institutional Laboratory Animal Care and Use Committee at the University of Illinois at Chicago.
All behavioral testing occurred in a cross maze made of translucent black acrylic. Each arm measured 55 cm long, 10 cm wide, and 15 cm in height. A circular food well, with a diameter of 3.2 cm and a depth of 1.6 cm was placed 3 cm from the end of each arm. […]
In this test, rats were placed in the testing room 5 minutes prior to behavioral testing. […] The number and sequence of arm entries was recorded. An arm entry was recorded when all four paws entered an arm. […]

Q: Which “acquisition of the place-cue strategy” value (normal rats [1]) does the source give for `CCc1noc(C2CN=CNC2)n1` (stereo not shown) [CDD-0102A, 5-(3-ethyl-1,2,4-oxadiazol-5-yl)-1,4,5,6-tetrahydropyrimidine] here?
A: Its value is “no effect”.

Q: What about the “acquisition of the visual-cue strategy” value (normal rats [2]) of the same molecule?
A: Its value is “no effect”.

Q: What about the “dose at which effect on strategy switching is maximal” value (male Long-Evans rats [3]) of the same molecule?
A: Its value is 0.03 mg/kg.

Q: What about the “salivary output over 60 minutes” value (male Long-Evans rats [4]; 0.1 mg/kg i.p.) of the same molecule?
A: Its value is “no salivation”.

Q: What about the “salivary output over 60 minutes” value (male Long-Evans rats [4]; 5 mg/kg i.p. (most salivation), mean ± SEM) of the same molecule?
A: Its value is 4,685±449 μl.

Q: And the “salivary output over 60 minutes” value (male Long-Evans rats [4]; 10 mg/kg i.p., compared with 5 mg/kg dose, P>0.5)?
A: The value was “not significantly different”.

Q: And the “separation between dose enhancing place-visual cue task (0.03 mg/kg ip) and dose producing half-maximum salivation” value (male Long-Evans rats [4]; efficacious dose lower than dose producing half-maximum salivation)?
A: Its value is “approximately 100 fold”.

Q: And the “lowest dose that produced salivation” value (male Long-Evans rats [4]; i.p.)?
A: The value was 0.3 mg/kg.

Q: What about the “trials to criterion, switch to place strategy” value (male Long-Evans rats [5]) of the same molecule?
A: The value was “no significant effect”.

Q: And the “dose at which significant improvement in memory function was observed” value (male Long-Evans rats [6])?
A: Its value is at least 0.1 mg/kg.
